Experimental data reported in ChEMBL document CHEMBL4014279, “Synthesis of novel pyrazolo[3,4-b]quinolinyl acetamide analogs, their evaluation for antimicrobial and anticancer activities, validation by molecular modeling and CoMFA analysis” (Eur J Med Chem, 2017).
pIC50: −log10 of the molar value. In brackets after ≈: the same amount, converted by molar mass. Activity calls are given as the source filed them. The calls are words filed in the database; no cut-off is given here.

Legend:
A549 [1] = assay: Cytotoxicity against human A549 cells at >100 uM after 24 hrs by MTT assay; format: functional, cell-based
Escherichia coli = assay: Antibacterial activity against Escherichia coli MTCC 739 after 24 hrs by well diffusion method; format: functional; settings: MTCC 739, 24 h
Pseudomonas aeruginosa = assay: Antibacterial activity against Pseudomonas aeruginosa MTCC 2453 after 24 hrs by well diffusion method; format: functional; settings: MTCC 2453, 24 h
HeLa [2] = assay: Cytotoxicity against human HeLa cells at >100 uM after 24 hrs by MTT assay; format: functional, cell-based
Staphylococcus aureus [3] = assay: Antibacterial activity against Staphylococcus aureus MLS16 MTCC 2940 after 24 hrs by well diffusion method; format: functional; settings: MLS16 MTCC 2940, 24 h
Micrococcus luteus = assay: Antibacterial activity against Micrococcus luteus MTCC 2470 after 24 hrs by well diffusion method; format: functional; settings: MTCC 2470, 24 h
HepG2 [4] = assay: Cytotoxicity against human HepG2 cells at >100 uM after 24 hrs by MTT assay; format: functional, cell-based
Raoultella planticola = assay: Antibacterial activity against Klebsiella planticola MTCC 530 after 24 hrs by well diffusion method; format: functional; settings: MTCC 530, 24 h
Staphylococcus aureus [5] = assay: Antibacterial activity against Staphylococcus aureus MTCC 96 after 24 hrs by well diffusion method; format: functional; settings: MTCC 96, 24 h
Bacillus subtilis = assay: Antibacterial activity against Bacillus subtilis MTCC 121 after 24 hrs by well diffusion method; format: functional; settings: MTCC 121, 24 h
COLO 205 [6] = assay: Cytotoxicity against human COLO205 cells at >100 uM after 24 hrs by MTT assay; format: functional, cell-based
HeLa [7] = assay: Cytotoxicity against human HeLa cells after 24 hrs by MTT assay; format: functional, cell-based
HepG2 [8] = assay: Cytotoxicity against human HepG2 cells after 24 hrs by MTT assay; format: functional, cell-based; settings: HepG2, 24 h
A549 [9] = assay: Cytotoxicity against human A549 cells after 24 hrs by MTT assay; format: functional, cell-based; settings: A549, 24 h
COLO 205 [10] = assay: Cytotoxicity against human COLO205 cells after 24 hrs by MTT assay; format: functional, cell-based; settings: COLO 205, 24 h

Which Activity (A549 [1]) does the source give for `Cc1c2ccccc2nc2c1c(C(F)(F)F)nn2CC(=O)NC1CCCC1` here?
The Activity was “inactive”.

What about the MIC (Escherichia coli) of the same compound?
The MIC was 7.8 to 125 µg/mL (≈ 20.7 to 332 µM).

What about the MIC (Pseudomonas aeruginosa) of the same compound?
The MIC was 7.8 to 125 µg/mL (≈ 20.7 to 332 µM).

And the Activity (HeLa [2])?
Its Activity is “inactive”.

And the MIC (Staphylococcus aureus [3])?
Its MIC is 7.8 to 125 µg/mL (≈ 20.7 to 332 µM).

What about the MIC (Micrococcus luteus) of the same compound?
Its MIC is 7.8 to 125 µg/mL (≈ 20.7 to 332 µM).

What about the Activity (HepG2 [4]) of the same compound?
Its Activity is “inactive”.

What about the MIC (Raoultella planticola) of the same compound?
Its MIC is 7.8 to 125 µg/mL (≈ 20.7 to 332 µM).

What about the MIC (Staphylococcus aureus [5]) of the same compound?
The MIC was 7.8 to 125 µg/mL (≈ 20.7 to 332 µM).

What about the MIC (Bacillus subtilis) of the same compound?
The MIC was 7.8 to 125 µg/mL (≈ 20.7 to 332 µM).

What about the Activity (COLO 205 [6]) of the same compound?
Its Activity is “inactive”.

With `COc1ccc(NC(=O)Cn2nc(C(F)(F)F)c3c(C)c4ccccc4nc32)cc1` as the compound, how does the Activity (A549 [1]) read?
The Activity was “inactive”.

What about the MIC (Escherichia coli) of the same compound?
The MIC was 7.8 to 125 µg/mL (≈ 18.8 to 302 µM).

And the MIC (Pseudomonas aeruginosa)?
Its MIC is 7.8 to 125 µg/mL (≈ 18.8 to 302 µM).

What about the Activity (HeLa [2]) of the same compound?
The Activity was “inactive”.

And the MIC (Staphylococcus aureus [3])?
Its MIC is 7.8 to 125 µg/mL (≈ 18.8 to 302 µM).

And the MIC (Micrococcus luteus)?
The MIC was 7.8 to 125 µg/mL (≈ 18.8 to 302 µM).

What about the Activity (HepG2 [4]) of the same compound?
Its Activity is “inactive”.

What about the MIC (Raoultella planticola) of the same compound?
The MIC was 7.8 to 125 µg/mL (≈ 18.8 to 302 µM).

What about the MIC (Staphylococcus aureus [5]) of the same compound?
The MIC was 7.8 to 125 µg/mL (≈ 18.8 to 302 µM).

What about the MIC (Bacillus subtilis) of the same compound?
Its MIC is 7.8 to 125 µg/mL (≈ 18.8 to 302 µM).

What about the Activity (COLO 205 [6]) of the same compound?
Its Activity is “inactive”.

With `Cc1c2ccccc2nc2c1c(C(F)(F)F)nn2CC(=O)N1CCOCC1` as the compound, how does the Activity (A549 [1]) read?
The Activity was “inactive”.

What about the MIC (Escherichia coli) of the same compound?
Its MIC is 7.8 to 125 µg/mL (≈ 20.6 to 330 µM).

And the MIC (Pseudomonas aeruginosa)?
The MIC was 7.8 to 125 µg/mL (≈ 20.6 to 330 µM).

What about the Activity (HeLa [2]) of the same compound?
The Activity was “inactive”.

What about the MIC (Staphylococcus aureus [3]) of the same compound?
Its MIC is 7.8 to 125 µg/mL (≈ 20.6 to 330 µM).

What about the MIC (Micrococcus luteus) of the same compound?
Its MIC is 7.8 to 125 µg/mL (≈ 20.6 to 330 µM).

And the Activity (HepG2 [4])?
Its Activity is “inactive”.

What about the MIC (Raoultella planticola) of the same compound?
The MIC was 7.8 to 125 µg/mL (≈ 20.6 to 330 µM).

And the MIC (Staphylococcus aureus [5])?
The MIC was 7.8 to 125 µg/mL (≈ 20.6 to 330 µM).

What about the MIC (Bacillus subtilis) of the same compound?
Its MIC is 7.8 to 125 µg/mL (≈ 20.6 to 330 µM).

And the Activity (COLO 205 [6])?
The Activity was “inactive”.

For `O=C(Cn1nc(C(F)(F)F)c2c(-c3ccccc3)c3ccccc3nc21)NC1CC1`, which Activity (A549 [1]) is on record?
Its Activity is “inactive”.

And the MIC (Escherichia coli)?
The MIC was 7.8 to 125 µg/mL (≈ 19 to 305 µM).

What about the MIC (Pseudomonas aeruginosa) of the same compound?
Its MIC is 7.8 to 125 µg/mL (≈ 19 to 305 µM).

And the Activity (HeLa [2])?
Its Activity is “inactive”.

And the MIC (Staphylococcus aureus [3])?
Its MIC is 7.8 to 125 µg/mL (≈ 19 to 305 µM).

And the MIC (Micrococcus luteus)?
The MIC was 7.8 to 125 µg/mL (≈ 19 to 305 µM).

What about the Activity (HepG2 [4]) of the same compound?
The Activity was “inactive”.

And the MIC (Raoultella planticola)?
Its MIC is 7.8 to 125 µg/mL (≈ 19 to 305 µM).

What about the MIC (Staphylococcus aureus [5]) of the same compound?
Its MIC is 7.8 to 125 µg/mL (≈ 19 to 305 µM).

And the MIC (Bacillus subtilis)?
The MIC was 7.8 to 125 µg/mL (≈ 19 to 305 µM).

What about the Activity (COLO 205 [6]) of the same compound?
The Activity was “inactive”.

What does the source list for `O=C(Cn1nc(C(F)(F)F)c2c(-c3ccccc3)c3ccccc3nc21)N1CCN(CCO)CC1`?
Activity (A549 [1]): inactive; MIC (Escherichia coli): 7.8 to 125 µg/mL (≈ 16.1 to 259 µM); MIC (Pseudomonas aeruginosa): 7.8 to 125 µg/mL (≈ 16.1 to 259 µM); Activity (HeLa [2]): inactive; MIC (Staphylococcus aureus [3]): 7.8 to 125 µg/mL (≈ 16.1 to 259 µM); MIC (Micrococcus luteus): 7.8 to 125 µg/mL (≈ 16.1 to 259 µM); Activity (HepG2 [4]): inactive; MIC (Raoultella planticola): 7.8 to 125 µg/mL (≈ 16.1 to 259 µM); MIC (Staphylococcus aureus [5]): 7.8 to 125 µg/mL (≈ 16.1 to 259 µM); MIC (Bacillus subtilis): 7.8 to 125 µg/mL (≈ 16.1 to 259 µM); Activity (COLO 205 [6]): inactive

With `CNC(=O)Cn1nc(C)c2c(C)c3ccccc3nc21` as the compound, how does the pIC50 (HeLa [7]) read?
Its pIC50 is 4.74.

And the MIC (Escherichia coli)?
The MIC was greater than 125 µg/mL.

And the MIC (Pseudomonas aeruginosa)?
Its MIC is greater than 125 µg/mL.

And the MIC (Staphylococcus aureus [3])?
Its MIC is greater than 125 µg/mL.

What about the pIC50 (HepG2 [8]) of the same compound?
The pIC50 was 4.75.

What about the pIC50 (A549 [9]) of the same compound?
The pIC50 was 4.69.

What about the MIC (Micrococcus luteus) of the same compound?
Its MIC is 15.6 µg/mL (≈ 58.1 µM).

What about the MIC (Raoultella planticola) of the same compound?
The MIC was greater than 125 µg/mL.

What about the MIC (Staphylococcus aureus [5]) of the same compound?
Its MIC is greater than 125 µg/mL.

And the MIC (Bacillus subtilis)?
The MIC was 62.5 µg/mL (≈ 233 µM).

And the pIC50 (COLO 205 [10])?
The pIC50 was 4.79.

Which results are given for `Cc1c2ccccc2nc2c1c(C(F)(F)F)nn2CC(=O)Nc1ccc([N+](=O)[O-])cc1`?
pIC50 (HeLa [7]): 4.41; Activity (A549 [1]): inactive; MIC (Escherichia coli): 7.8 to 125 µg/mL (≈ 18.2 to 291 µM); MIC (Pseudomonas aeruginosa): 7.8 to 125 µg/mL (≈ 18.2 to 291 µM); MIC (Staphylococcus aureus [3]): 7.8 to 125 µg/mL (≈ 18.2 to 291 µM); MIC (Micrococcus luteus): 7.8 to 125 µg/mL (≈ 18.2 to 291 µM); Activity (HepG2 [4]): inactive; MIC (Raoultella planticola): 7.8 to 125 µg/mL (≈ 18.2 to 291 µM); MIC (Staphylococcus aureus [5]): 7.8 to 125 µg/mL (≈ 18.2 to 291 µM); MIC (Bacillus subtilis): 7.8 to 125 µg/mL (≈ 18.2 to 291 µM); pIC50 (COLO 205 [10]): 4.44

Which results are given for `O=C(Cn1nc(C(F)(F)F)c2c(-c3ccccc3)c3ccccc3nc21)NC1CCCCC1`?
pIC50 (HeLa [7]): 4.53; MIC (Escherichia coli): 7.8 to 125 µg/mL (≈ 17.2 to 276 µM); MIC (Pseudomonas aeruginosa): 7.8 to 125 µg/mL (≈ 17.2 to 276 µM); MIC (Staphylococcus aureus [3]): 7.8 to 125 µg/mL (≈ 17.2 to 276 µM); pIC50 (HepG2 [8]): 4.52; pIC50 (A549 [9]): 4.59; MIC (Micrococcus luteus): 7.8 to 125 µg/mL (≈ 17.2 to 276 µM); MIC (Raoultella planticola): 7.8 to 125 µg/mL (≈ 17.2 to 276 µM); MIC (Staphylococcus aureus [5]): 7.8 to 125 µg/mL (≈ 17.2 to 276 µM); MIC (Bacillus subtilis): 7.8 to 125 µg/mL (≈ 17.2 to 276 µM); pIC50 (COLO 205 [10]): 4.49
